US7365098B2, “N'-cyano-N-methyl-imidamide derivatives” (Bayer CropScience AG, priority 2002, dated 2008)

Key:
Meloidogyne incognita = test: Meloidogyne test (gall formation on lettuce roots); assay type: in vivo; details: for nematizidal activity (formation of galls): Meloidogyne incognita egg/larvae, lettuce in sand, result in words
Method: • Solvent: 7 parts by weight of dimethylformamide • Emulsifier: 2 parts by weight of alkylaryl polyglycol ether To produce a suitable preparation of active compound, 1 part by weight of active compound is mixed with the stated amount of solvent and emulsifier, and the concentrate is diluted with water to the desired concentration. Containers are filled with sand, solution of active compound, Meloidogyne incognita egg/larvae suspension and lettuce seeds. The lettuce seeds germinate and the plants develop. On the roots, galls are formed. After the desired period of time, the nematizidal activity is the determined in percent by the formation of galls. 100% means that no galls were found; 0% means that the number of galls on the treated plants corresponds to that of the untreated control. […] The efficacy of the compounds is stated as kill rate in %.

[1] = logP determination by HPLC on reversed-phase column (EEC-Directive 79/831 Annex V.A8); assay type: physicochemical; details: reversed-phase C 18, 43° C., acidic range (0.1% aqueous phosphoric acid/acetonitrile gradient); for chromatographic logP: reversed-phase HPLC column (C 18)
Method: The logP values given in table 1 were determined in accordance with EEC-Directive 79/831 Annex V.A8 by HPLC (High Performance Liquid Chromatography) on a reversed-phase column (C 18). Temperature: 43° C. Mobile phases for the determination in the acidic range: 0.1% aqueous phosphoric acid, acetonitrile; linear gradient from 10% acetonitrile to 90% acetonitrile. Calibration was carried out using unbranched alkan-2-ones (having 3 to 16 carbon atoms) whose logP values are known (determination of the lopP values by the retention times using linear interpolation between two successive alkanones).

Phaedon cochleariae = test: Phaedon larvae test (dipped cabbage leaves); assay type: in vivo; details: Phaedon cochleariae larvae on cabbage leaves; result in words
Method: (§1) • Solvent: 7 parts by weight of dimethylformamide • Emulsifier: 2 parts by weight of alkylaryl polyglycol ether To produce a suitable preparation of active compound, 1 part by weight of active compound is mixed with the stated amounts of solvent and emulsifier, and the concentrate is diluted with emulsifier-containing water to the desired concentration. Cabbage leaves (Brassica oleracea) are treated by being dipped into the preparation of active compound of the desired concentration and are populated with larvae of the mustard beetle (Phaedon cochleariae) while the leaves are still moist. After the desired period of time, the kill in % is determined. 100% means that all beetle larvae have been killed. 0% means that none of the beetle larvae have been killed.

Spodoptera frugiperda = Spodoptera frugiperda test (dipped cabbage leaves); assay type: in vivo; details: Spodoptera frugiperda caterpillars on cabbage leaves; result in words
Method: as §1, with “[table]” for “• Solvent: 7 parts by weight of dimethylformamide • Emulsifier: 2 parts by weight of alkylaryl polyglycol ether”, “amount” for “amounts”, “with” for “with emulsifier-containing”, “caterpillars” for “larvae”, “Heerwurms (Spodoptera frugiperda)” for “mustard beetle (Phaedon cochleariae)”, “caterpillars” for “beetle larvae”

Row | chromatographic logP [1] | SMILES | nematizidal activity (formation of galls) (Meloidogyne incognita) | also measured
1 | – | CC/C(=N\C#N)NC(C)c1ccc(Cl)c(F)c1 (stereo not drawn) [reference compound] | – | efficacy stated as kill rate in % (Meloidogyne incognita; 4 ppm active compound): 4 ppm: 0%
2 | 2.61 | CC/C(=N\C#N)N(C)C(C)c1ccc(Cl)c(F)c1 (stereo not drawn) [Example 8] | highly effective | –
3 | 2.46 | C/C(=N\C#N)N(C)C(C)c1cc(Cl)ccc1Cl (stereo not drawn) [Example 24] | highly effective | –
4 | – | C/C(=N\C#N)N(C)C(C)c1ccc(Cl)cc1F (stereo not drawn) [Example 3] | highly effective | –
5 | 2.09 | C/C(=N\C#N)N(C)C(C)c1ccc(F)c(F)c1 (stereo not drawn) [Example 26] | highly effective | –
6 | 2.55 | CC/C(=N\C#N)N(C)[C@H](C)c1ccc(Cl)cc1F [Example 11] | highly effective | –
7 | 2.56 | CC/C(=N\C#N)NC(C)c1ccc(Cl)cc1Cl (stereo not drawn) [Example 1, N′-Cyano-N-[1-(2,4-dichlorophenyl)ethyl]propaneimidamide] | – | –
8 | – | CC/C(=N\C#N)N(C)C(C)c1ccc(Cl)c(F)c1 (stereo not drawn) [drawing 46] | – | efficacy stated as kill rate in % (Meloidogyne incognita; 4 ppm active compound): 4 ppm: 100%
9 | 2.55 | CC/C(=N\C#N)N(C)[C@@H](C)c1ccc(Cl)cc1F [Example 10] | highly effective | –
10 | 2.31 | CC/C(=N\C#N)N(C)C(C)c1cc(F)c(F)cc1F (stereo not drawn) [Example 16] | – | –
11 | – | CC/C(=N\C#N)N(C)C(C)c1ccc(Cl)c(Cl)c1Cl (stereo not drawn) [Example 18] | highly effective | –
12 | – | CC/C(=N\C#N)N(C)C(C)c1ccc(Cl)cc1F (stereo not drawn) [Example 4] | highly effective | –
13 | 2.32 | CC/C(=N\C#N)N(C)C(C)c1ccc(F)c(F)c1 (stereo not drawn) [Example 27] | highly effective | –
14 | 2.37 | C/C(=N\C#N)N(C)C(C)c1cccc(Cl)c1Cl (stereo not drawn) [Example 28] | highly effective | –
15 | 2.9 | C/C(=N\C#N)N(C)C(C)c1cc(Cl)c(Cl)cc1Cl (stereo not drawn) [Example 19] | highly effective | kill of beetle larvae (Phaedon cochleariae): highly effective; kill of caterpillars (Spodoptera frugiperda): highly effective
16 | 2.68 | C/C(=N\C#N)N(C)C(C)c1ccc(Cl)c(Cl)c1 (stereo not drawn) [Example 14] | highly effective | –
17 | – | CC/C(=N\C#N)N(C)C(C)c1cc(F)c(Cl)cc1Cl (stereo not drawn) [Example 9] | highly effective | kill of caterpillars (Spodoptera frugiperda): highly effective
18 | 2.59 | CC/C(=N\C#N)N(C)[C@@H](C)c1cc(F)c(Cl)cc1F [Example 12] | highly effective | –

Row | chromatographic logP [1] | SMILES | nematizidal activity (formation of galls) (Meloidogyne incognita) | also measured
19 | – | C/C(=N\C#N)NC(C)c1ccc(Cl)cc1Cl (stereo not drawn) [reference compound] | – | efficacy stated as kill rate in % (Meloidogyne incognita; 5 ppm active compound): 5 ppm: 0%
20 | 2.4 | C/C(=N\C#N)N(C)C(C)c1ccc(Cl)c(F)c1 (stereo not drawn) [Example 7] | highly effective | –
21 | 2.94 | CC/C(=N\C#N)N(C)C(C)c1ccc(Br)c(Cl)c1 (stereo not drawn) [Example 25] | highly effective | –
22 | 3.18 | CC/C(=N\C#N)N(C)C(C)c1cc(Cl)c(Cl)cc1Cl (stereo not drawn) [Example 20] | highly effective | –
23 | 2.58 | C/C(=N\C#N)N(C)C(C)c1ccc(Cl)cc1Cl (stereo not drawn) [Example 17] | highly effective | –
24 | 2.19 | CC/C(=N\C#N)N(C)C(C)c1c(F)cccc1Cl (stereo not drawn) [Example 22] | highly effective | –
25 | – | CC/C(=N\C#N)N(C)C(C)c1cc(F)c(Cl)cc1F (stereo not drawn) [Example 5] | highly effective | kill of caterpillars (Spodoptera frugiperda): highly effective
26 | 2.59 | CC/C(=N\C#N)N(C)C(C)c1cccc(Cl)c1Cl (stereo not drawn) [Example 29] | highly effective | –
27 | – | CC/C(=N\C#N)N(C)C(C)c1ccc(Cl)cc1Cl (stereo not drawn) [drawing 44] | – | efficacy stated as kill rate in % (Meloidogyne incognita; 20 ppm active compound): 20 ppm: 100%
28 | 2.8 | CC/C(=N\C#N)N(C)C(C)c1ccc(Cl)cc1Cl (stereo not drawn) [Example 2, N′-Cyano-N-[1-(2,4-dichlorophenyl)ethyl]-N-methylpropaneimidamide] | – | melting point: 148 °C
29 | 2.59 | CC/C(=N\C#N)N(C)[C@H](C)c1cc(F)c(Cl)cc1F [Example 13] | highly effective | –
30 | – | C/C(=N\C#N)N(C)C(C)c1cc(F)c(Cl)cc1F (stereo not drawn) [Example 6] | highly effective | –
31 | – | CC/C(=N\C#N)N(C)C(C)c1c(F)cccc1Cl (stereo not drawn) [Example 23] | highly effective | logP [1]: logP: 2.40
32 | 2.9 | CC/C(=N\C#N)N(C)C(C)c1ccc(Cl)c(Cl)c1 (stereo not drawn) [Example 15] | highly effective | –
33 | – | C/C(=N\C#N)N(C)C(C)c1ccc(Cl)cc1Cl (stereo not drawn) [drawing 48] | – | efficacy stated as kill rate in % (Meloidogyne incognita; 4 ppm active compound): 4 ppm: 100%
34 | 2.66 | CC/C(=N\C#N)N(C)C(C)c1cc(F)c(Br)cc1F (stereo not drawn) [Example 30] | – | –
35 | 2.94 | CC/C(=N\C#N)N(C)C(C)c1ccc(Cl)c(Br)c1 (stereo not drawn) [Example 21] | – | –
36 | – | CC/C(=N\C#N)NC(C)c1ccc(Cl)cc1Cl (stereo not drawn) [drawing 45, reference compound] | – | efficacy stated as kill rate in % (Meloidogyne incognita; 20 ppm active compound): 20 ppm: 0%
